Earlier results on one compound are cited in patent US20080064913A1 (priority 2005, published 2008).

The subject of the data set is rat. As to conditions: in vivo.

Take `NN` [hydrazine]: the “LD50 (rat)” value is reported as 60 mg/kg.
